Like-named read-outs stand apart in the source and are kept apart here.

The conditions of data set [1]: 24 hours.
For data set [2] the following is noted: 450 nm light pulsed at 100 cps; 24 hours; p<0.05.
For data set [3] the following is noted: diabetic rats; photokinetic delivery (Kulp et al., 2010); cited from earlier work.

Consider “HGH: Human growth hormone with a molecular weight of 22,124 Da”, for which the “transdermal permeation flux of HGH, photokinetic compared to passive permeation” value in data set [1] (350, 390, 405 and 450 nm at 24 cps, donor 270 ng/ml, p<0.001) is given as “significantly increased”.
With “Hyaluronic acid [69 kDa hyaluronic acid]”, the “transdermal flux rate, 24 cps compared to 100 cps” value in data set [1] (405 nm light, p<0.05) is listed as “significantly higher than 405 nm light pulsed at 100 cps”. Moreover, the “transdermal flux rate, photokinetic compared to passive permeation” value in data set [1] is “significantly higher than passive permeation”. In data set [2], the “intradermal deposition, photokinetic compared to passive control” value is listed as “significantly higher intradermal deposition”.
On to “Hyaluronic acid [2,100 kDa hyaluronic acid]”, for which the “transdermal flux rate, photokinetic compared to passive permeation control” value in data set [1] (390, 405 and 450 nm at 24 cps and 405 nm at 100 cps, p<0.05) is listed as “significantly higher than passive permeation control samples”. Further, in data set [1] (390 nm, 405 nm and 436 nm light, p<0.05), the “transdermal flux rate, 24 cps compared to 100 cps” value is “significantly higher than 390 nm, 405 nm, and 436 nm light pulsed at 100 cps”.
Take “insulin: insulin, molecular weight of about 5,730 Da”: the blood sugar levels entry in data set [3] is “blood sugar levels were reduced”.

Source of the values: patent US9474911B2, “Delivery of large molecular weight biologically active substances” (PhotoKinetix Holdings Inc., priority 2011, dated 2016).
